Experiment [1] has as its system OSA. Kind of experiment: Acetazolamide effect on loop gain and OSA severity. Further details: species or system human. As to conditions: in vivo. An excerpt:
Residual events after anatomical interventions can arise as an effect of elevated loop gain. […] Acetazolamide is a respiratory stimulant used in healthy adults at high-altitude (where it augments and stabilizes respiration) and has additionally been administered safely long-term for glaucoma and heart failure.

Experiment [2] deals with OSA. As to conditions: agents administered separately (N=9); cited from earlier work.

For the compound `CC(=O)Nc1nnc(S(N)(=O)=O)s1` [acetazolamide], in experiment [1], the “reduction of OSA severity (AHI)” value was ~50% and the “reduction of loop gain” value is ~50%. Regarding `CNCC[C@@H](Oc1ccccc1C)c1ccccc1` [atomoxetine, Atomoxetine], the “effect on OSA severity, agents administered separately” value in experiment [2] is given as “minimal effect”. Consider `CCN(CC)CC#CCOC(=O)C(O)(c1ccccc1)C1CCCCC1` (stereo not shown) [oxybutynin], for which the “effect on OSA severity, agents administered separately” value in experiment [2] is “minimal effect”.

Source of the values: patent publication US20260083709A1, “COMBINATION PHARMACOLOGICAL INTERVENTIONS FOR MULTIPLE MECHANISMS OF OBSTRUCTIVE SLEEP APNEA” (APNIMED, INC.(DELAWARE), priority 2019, published 2026).
